Reference: patent publication US20150291625A1 (PFIZER INC., priority 2012, published 2015)
“And” between values parts separate entries of the source, which are not always exact repeats. Identical values can stand only once. Counter-ions that a name gives are not always drawn. Like-named read-outs stand apart in the source and are kept apart here.

Experiments:
D1 [1] = molecular target: T1, D1 (Homo sapiens, UniProt P21728); experiment: D1 cAMP HTRF assay (HEK293T/hD1#1 stable cell line); assay type: cell-based; set-up: expressed in transfected cells
T1 sequence (P21728 whole entry): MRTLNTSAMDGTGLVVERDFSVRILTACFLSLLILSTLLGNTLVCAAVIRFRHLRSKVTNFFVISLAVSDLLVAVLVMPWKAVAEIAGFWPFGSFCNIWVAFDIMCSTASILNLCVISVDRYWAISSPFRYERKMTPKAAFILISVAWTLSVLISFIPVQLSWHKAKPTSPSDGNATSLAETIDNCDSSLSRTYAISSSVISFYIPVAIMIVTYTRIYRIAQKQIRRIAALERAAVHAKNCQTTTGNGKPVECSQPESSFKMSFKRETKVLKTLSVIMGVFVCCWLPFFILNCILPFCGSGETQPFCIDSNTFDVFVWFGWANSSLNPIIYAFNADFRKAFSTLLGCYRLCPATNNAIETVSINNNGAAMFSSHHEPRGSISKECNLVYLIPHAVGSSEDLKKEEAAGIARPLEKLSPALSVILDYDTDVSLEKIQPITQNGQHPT
Text: This assay was used to determine the ability of a test compound to agonize (including partially agonize) D1. A Mab anti-cAMP labeled Cryptate visualizes the tracer. […] The signal, therefore, is inversely proportional to the concentration of cAMP in the sample.
The cAMP Dynamic kit was obtained from Cisbio International (Cisbio 62AM4PEJ). Multidrop Combi (Thermo Scientific) was used for assay additions. Envision (PerkinElmer) reader was used to read HTRF.
A HEK293T/hD1#1 stable cell line was constructed internally (Pfizer Ann Arbor). […] One mL aliquots of the cells were made in Cryo-vials and frozen at −80° C. for future use in the D1 HTRF assay.
Frozen cells were quickly thawed, re-suspended in 50 mL warm media and allowed to sit for 5 min prior to centrifugation (1000 rpm) at room temperature. Media was removed and cell pellet was re-suspended in PBS/0.5 μM IBMX generating 2e5 cells/mL. […] Cells and compounds were incubated at room temperature for 30 min. Working solutions of cAMP-D2 and anti-cAMP-cryptate were prepared according to Cisbio instructions. Using Multidrop, 5 μL cAMP-D2 working solution was added to the assay plate containing the test compound and cells. Using Multidrop, 5 μL anti-cAMP-cryptate working solutions was added to assay plate containing test compound, cells and cAMP-D2. Assay plate was incubated for 1 hour at room temperature. Assay plate was read on Envision plate reader using Cisbio recommended settings. A cAMP standard curve was generated using cAMP stock solution provided in the Cisbio kit.
Data analysis was done using computer software. Percent effects were calculated from the compound controls. Ratio EC50 was determined using the raw ratio data from the Envision reader. The cAMP standard curve was used in an analysis program to determine cAMP concentrations from raw ratio data. cAMP EC50 was determined using the calculated cAMP data.

D1 [2] = molecular target: T1, D1; experiment: Human D1 receptor binding assay ([3H]-SCH23390 competition)
[3] = Human D1 Receptor Binding, Ki (nM), Geometric mean of 2-4 determinations, a: >=5 determinations, d: single determination
[4] = read-out: Human D1 Receptor Binding, Ki (nM), Geometric mean of 2-4 determinations, a: >=5 determinations, d: single determination

SMILES | EC50 (D1 [1]) | Ki (D1 [2]; [3]) [nM] | Ki (D1 [2]; [4]) [nM]
Cc1cc(Oc2nccc3occc23)ccc1-c1c(C)cnnc1Cl [Example 11, 4-[4-(3-Chloro-5-methylpyridazin-4yl)-3-methylphenoxy]furo[3,2-c]pyridine] | 0.186 µM | 11.8 | 
Cc1cc(Oc2nccc3occc23)ccc1-c1c(C)cnnc1C [Example 12, 4-[4-(3,5-Dimethylpyridazin-4-yl)-3-methylphenoxy]furo[3,2-c]pyridine] | 0.166 µM and 0.395 µM | 14.3 | 
Cc1cc(Oc2nccc3occc23)ccc1-c1c(C)cnn1C(C)(C)C [Example 15, 4-[4-(1-tert-Butyl-4-methyl-1H-pyrazol-5yl)-3-methylphenoxy]furo[3,2-c]pyridine] | 0.895 µM |  | 121
Nc1cc(Oc2nccc3occc23)ccc1-c1cccc2nccn12 [Example 16, 5-(Furo[3,2-c]pyridin-4-yloxy)-2-(imidazo[1,2-a]pyridin-5-yl)aniline] | 0.415 µM | 146 | 
Cc1cc(Nc2nccc3occc23)ccc1-c1cccc2nccn12 [Example 17, N-[4-(Imidazo[1,2-a]pyridin-5-yl)-3-methylphenyl]furo[3,2-c]pyridin-4-amine] | 0.957 µM | 111 | 
Cc1cc(Oc2nccc3occc23)ccc1-c1c(C)ncnc1Cl [Example 18, 4-[4-(4-chloro-6-methylpyrimidin-5-yl)-3-methylphenoxy]furo[3,2-c]pyridine] | 0.118 µM and 0.511 µM | 15.6 | 
Cc1cc(Oc2nccc3occc23)ccc1-c1c(C)nc(O)c2nccn12 [Example 19, 5-[4-(Furo[3,2-c]pyridin-4-yloxy)-2-methylphenyl]-6-methylimidazo[1,2-a]pyrazin-8-ol] | 0.246 µM and 0.426 µM | 24.7 | 
Cc1ncnc(C)c1-c1ccc(Oc2nccc3occc23)cc1CO [Example 20, [2-(4,6-Dimethylpyrimidin-5-yl)-5-(furo[3,2-c]pyridin-4-yloxy)phenyl]methanol] | 0.622 µM | 138 | 
Cc1ncnc(C)c1-c1ccc(Oc2nccc3occc23)cc1CF [Example 21, 4-[4-(4,6-Dimethylpyrimidin-5-yl)-3-(fluoromethyl)phenoxy]furo[3,2-c]pyridine] | 0.0858 µM | 36.2 | 
Cc1cc(Oc2nccc3occ(C)c23)ccc1-c1c(C)ncnc1C [Example 22, 4-[4-(4,6-Dimethylpyrimidin-5-yl)-3-methylphenoxy]-3-methylfuro[3,2-c]pyridine] | 0.774 µM and 1.34 µM | 162 | 
Cc1ncnc(C)c1-c1ccc(Oc2nccc3occc23)c2[nH]ccc12 [Example 23, 4-{[4-(4,6-Dimethylpyrimidin-5-yl)-1H-indol-7-yl]oxy}furo[3,2-c]pyridine] | 0.848 µM | 30.6 | 
CCOc1ncnc(C)c1-c1ccc(Oc2nccc3occc23)cc1C [Example 24, 4-[4-(4-Ethoxy-6-methylpyrimidin-5-yl)-3-methylphenoxy]furo[3,2-c]pyridine] | 2.06 µM and 2.59 µM | 33 | 
Cc1n[nH]c(=O)c(C)c1-c1ccc(Oc2nccc3occc23)cc1 [Example 28, 5-[4-(Furo[3,2-c]pyridin-4-yloxy)phenyl]-4,6-dimethylpyridazin-3(2H)-one] | 0.11 µM | 19.3 | 
Cc1cnccc1-c1c(C)cc(Oc2nccc3occc23)cc1C [Example 29, 4-[3,5-Dimethyl-4-(3-methylpyridin-4-yl)phenoxy]furo[3,2-c]pyridine] | 2.82 µM | 329 | 
c1ccc2c(-c3cccc4nccn34)ccc(Oc3nccc4occc34)c2c1 [Example 30, 4-{[4-(Imidazo[1,2-a]pyridin-5-yl)naphthalen-1-yl]oxy}furo[3,2-c]pyridine, trifluoroacetate salt] | 2.48 µM | 220 | 
Cc1nc2cnccc2n1-c1ccc(Oc2nccc3occc23)cc1 [Example 31, 1-[4-(furo[3,2-c]pyridin-4-yloxy)phenyl]-2-methyl-1H-imidazo[4,5-c]pyridine] | 1.03 µM and 1.19 µM | 316 | 
Cc1cnn(C2CC2)c1-c1ccc(Oc2nccc3occc23)cc1 [Example 32, 4-[4-(1-cyclopropyl-4-methyl-1H-pyrazol-5-yl)phenoxy]furo[3,2-c]pyridine, trifluoroacetate salt] | 2.24 µM | 281 | 

SMILES | EC50 (D1 [1]) | Ki (D1 [2]; [3]) [nM] | Ki (D1 [2]; [4]) [nM]
COc1ccc2cnccc2c1-c1ccc(Oc2nccc3occc23)cc1 [Example 33, 5-[4-(furo[3,2-c]pyridin-4-yloxy)phenyl]-6-methoxyisoquinoline] | 2.27 µM | 111 | 
COc1cc(Oc2nccc3occc23)ccc1-c1cccc2nccn12 [Example 34, 4-[4-(imidazo[1,2-a]pyridin-5-yl)-3-methoxyphenoxy]furo[3,2-c]pyridine] | 0.182 µM | 20 | 
Cc1cc(Oc2nccc3occc23)ccc1-c1c(C)ccc2nccn12 [Example 35, 4-[3-methyl-4-(6-methylimidazo[1,2-a]pyridin-5-yl)phenoxy]furo[3,2-c]pyridine] | 0.0636 µM |  | 6.86
Cc1cc(Oc2nccc3occc23)ccc1-c1cncc2nccn12 [Example 36, 5-[4-(furo[3,2-c]pyridin-4-yloxy)-2-methylphenyl]imidazo[1,2-a]pyrazine] | 0.378 µM and 0.412 µM | 120 | 
COc1cc(Oc2nccc3occc23)ccc1-c1c(C)ccc2nccn12 [Example 37, 4-[3-methoxy-4-(6-methylimidazo[1,2-a]pyridin-5-yl)phenoxy]furo[3,2-c]pyridine] | 0.0469 µM | 3.54 | 
CNc1cc(Oc2nccc3occc23)ccc1-c1cccc2nccn12 [Example 38, 5-(furo[3,2-c]pyridin-4-yloxy)-2-(imidazo[1,2-a]pyridin-5-yl)-N-methylaniline] | 0.2 µM | 36 | 
Cc1nc2cnccc2n1-c1ccc(Oc2nccc3occc23)cc1Cl [Example 39, 1-[2-chloro-4-(furo[3,2-c]pyridin-4-yloxy)phenyl]-2-methyl-1H-imidazo[4,5-c]pyridine] | 0.415 µM | 91 | 
c1cc(-c2ccc(Oc3nccc4occc34)cc2OCc2cscn2)n2ccnc2c1 [Example 40, 4-[4-(imidazo[1,2-a]pyridin-5-yl)-3-(1,3-thiazol-4-ylmethoxy)phenoxy]furo[3,2-c]pyridine, trifluoroacetate salt] | 1.27 µM | 107 | 
CCC(=O)COc1cc(Oc2nccc3occc23)ccc1-c1cccc2nccn12 [Example 41, 1-[5-(furo[3,2-c]pyridin-4-yloxy)-2-(imidazo[1,2-a]pyridin-5-yl)phenoxy]butan-2-one, trifluoroacetate salt] | 0.517 µM | 72.1 | 
OCCOc1cc(Oc2nccc3occc23)ccc1-c1cccc2nccn12 [Example 42, 2-[5-(furo[3,2-c]pyridin-4-yloxy)-2-(imidazo[1,2-a]pyridin-5-yl)phenoxy]ethanol, trifluoroacetate salt] | 0.406 µM | 118 | 
O=C(COc1cc(Oc2nccc3occc23)ccc1-c1cccc2nccn12)NC1CC1 [Example 43, N-cyclopropyl-2-[5-(furo[3,2-c]pyridin-4-yloxy)-2-(imidazo[1,2-a]pyridin-5-yl)phenoxy]acetamide, trifluoroacetate salt] | 0.605 µM | 211 | 
COC(=O)COc1cc(Oc2nccc3occc23)ccc1-c1cccc2nccn12 [Example 44, methyl [5-(furo[3,2-c]pyridin-4-yloxy)-2-(imidazo[1,2-a]pyridin-5-yl)phenoxy]acetate, trifluoroacetate salt] | 0.651 µM | 129 | 
Cc1cc(Oc2nccc3occc23)ccc1-c1c(C)cnc2ncnn12 [Example 45, 7-[4-(furo[3,2-c]pyridin-4-yloxy)-2-methylphenyl]-6-methyl[1,2,4]triazolo[1,5-a]pyrimidine] | 1.14 µM | 182 | 
O=C(NC1CCC1)c1cc(Oc2nccc3occc23)ccc1-c1cccc2nccn12 [Example 46, N-cyclobutyl-5-(furo[3,2-c]pyridin-4-yloxy)-2-(imidazo[1,2-a]pyridin-5-yl)benzamide, trifluoroacetate salt] | 2.12 µM | 316 | 
CCOCC(=O)Nc1cc(Oc2nccc3occc23)ccc1-c1cccc2nccn12 [Example 47, 2-ethoxy-N-[5-(furo[3,2-c]pyridin-4-yloxy)-2-(imidazo[1,2-a]pyridin-5-yl)phenyl]acetamide] | 0.935 µM | 302 | 
Cn1cncc1CNc1cc(Oc2nccc3occc23)ccc1-c1cccc2nccn12 [Example 48, 5-(furo[3,2-c]pyridin-4-yloxy)-2-(imidazo[1,2-a]pyridin-5-yl)-N-[(1-methyl-1H-imidazol-5-yl)methyl]aniline, trifluoroacetate salt] | 2.07 µM | 68.8 | 
